The values below come from patent US20110172217A1, “RING-FUSED MORPHOLINE DERIVATIVE HAVING PI3K-INHIBITING ACTIVITY” (Shionogi & Co., Ltd., priority 2008, published 2011).

PI-3 kinase γ, sequence (P48736 whole entry): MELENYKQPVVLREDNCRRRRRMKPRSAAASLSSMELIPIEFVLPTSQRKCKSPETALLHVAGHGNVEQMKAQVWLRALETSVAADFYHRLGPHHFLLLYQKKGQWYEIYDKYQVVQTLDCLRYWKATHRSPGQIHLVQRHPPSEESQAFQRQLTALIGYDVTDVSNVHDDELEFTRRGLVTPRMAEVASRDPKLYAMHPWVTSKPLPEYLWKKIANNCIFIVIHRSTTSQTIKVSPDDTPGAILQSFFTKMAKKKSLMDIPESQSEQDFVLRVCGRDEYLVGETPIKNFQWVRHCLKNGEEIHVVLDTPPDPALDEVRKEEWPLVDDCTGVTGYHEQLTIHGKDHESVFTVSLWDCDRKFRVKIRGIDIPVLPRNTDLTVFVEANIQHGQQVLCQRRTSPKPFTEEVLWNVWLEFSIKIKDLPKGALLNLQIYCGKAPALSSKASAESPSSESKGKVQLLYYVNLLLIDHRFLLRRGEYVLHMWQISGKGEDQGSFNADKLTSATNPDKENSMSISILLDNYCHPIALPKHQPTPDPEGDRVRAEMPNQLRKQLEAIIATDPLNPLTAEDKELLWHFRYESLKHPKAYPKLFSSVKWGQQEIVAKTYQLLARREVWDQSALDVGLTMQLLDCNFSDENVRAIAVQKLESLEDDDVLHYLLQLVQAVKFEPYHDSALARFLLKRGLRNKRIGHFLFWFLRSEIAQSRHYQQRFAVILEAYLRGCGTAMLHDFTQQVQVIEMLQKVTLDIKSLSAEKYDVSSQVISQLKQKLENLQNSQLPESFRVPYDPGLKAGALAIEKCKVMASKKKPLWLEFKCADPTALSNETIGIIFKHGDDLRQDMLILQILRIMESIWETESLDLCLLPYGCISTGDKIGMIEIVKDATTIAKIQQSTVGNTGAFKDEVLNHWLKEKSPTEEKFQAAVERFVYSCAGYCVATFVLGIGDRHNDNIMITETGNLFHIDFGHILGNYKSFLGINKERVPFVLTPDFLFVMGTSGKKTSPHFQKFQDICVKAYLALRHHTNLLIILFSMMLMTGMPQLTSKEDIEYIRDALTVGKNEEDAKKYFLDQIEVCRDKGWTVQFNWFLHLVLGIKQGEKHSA

This experiment addresses PI-3 kinase γ (Homo sapiens, UniProt P48736). Briefly: PI3Kγ inhibitory activity, PI3-kinase HTRF assay (inhibition ratio). It is filed as biochemical. Particulars: 0.5 h, compound at 50 μmol/L. The protocol: For each compound synthesized in the above Examples, PI3Kγ inhibitory activity was measured.
The PI3Kγ inhibitory activity of a compound was evaluated using PI3-kinase HTRF™ assay (Millipore) according to the following procedure:
To each well of a testing plate, 5 μL of a compound solution containing 10% DMSO (200 μmol/L or 40 μmol/L as the concentration of the compound), 5 μL of a substrate solution (40 μmol/L phosphatidylinositol (4,5)-bisphosphate, 20 mmol/L MgCl2, 10 mmol/L DTT), and 5 μL of a enzyme solution (80 μg/mL PI-3 kinase γ, 10 mmol/L MgCl2, 5 mmol/L DTT) were added, and then allowed to stand for 10 minutes.
Then, 5 μL of a reaction solution (40 μmol/L ATP, 10 mmol/L MgCl2, 5 mmol/L DTT) was added thereto. After reacting for 30 minutes at room temperature, 5 μL of a solution containing EDTA and biotinylated phosphatidylinositol (3,4,5)-triphosphate were added to quench the reaction.
5 μL of a detection reagent containing a europium-labeled anti-GST antibody, the GST-tagged PH domain, and allophycocyanin-labeled streptavidin was added thereto. After 18 hours, HTRF (excitation wavelength: 330 nm, measured wavelengths: 620 nm and 665 nm) was measured.
HTRF ratio was defined as the value obtained by dividing the amount of fluorescence obtained at the measured wavelength 665 nm by the amount of fluorescence obtained at 620 nm. The HTRF ratio in the absence of a compound was defined as 100% activity and the HTRF ratio in the absence of PI-3 kinase γ was defined as 0% activity to calculate an inhibition ratio which was defined as the PI3Kγ inhibitory activity of a compound at 50 μmol/L or 10 μmol/L.
(In TR-FRET formats the signal depends on donor and acceptor labels being close together.)
Regarding `O=C(O)c1ccc(-c2cnc3c(c2)OCCN3C(=O)Nc2ccccc2)s1` [Compound I-285], the inhibition (in general, the change of the read-out against control, counted positive when it falls) at 50 µM turned out to be 88%. The figure for `O=C(O)c1cccc(C(=O)Nc2ccc3c(n2)N(C(=O)Nc2ccccc2)CCO3)c1` [Compound I-124] is 76%; for `CCOC(=O)CNC(=O)Nc1cnc2c(c1)OCCN2C(=O)Nc1ccccc1` [Compound I-238] it is 83%. The figure for `CC(C)(C)OC(=O)COc1ccc(Nc2cnc3c(c2)OCCN3C(=O)Nc2ccccc2)cc1` [Compound I-237] is at least 95%; for `O=C(O)c1ccc(-c2ccc3c(n2)OCCN3C(=O)Nc2ccccc2C(=O)O)cc1` [Compound I-259] it is at least 95%. The figure for `COC(=O)c1ccc(Nc2ccc3c(n2)N(C(=O)Nc2ccccc2)CCO3)c(OCCNC(=O)OC(C)(C)C)c1` [Compound I-216] is at least 95%; for `COC(=O)c1ccc(Nc2ccc3c(n2)N(C(=O)Nc2ccccc2)CCO3)cc1` [Compound I-229] it is at least 95%; for `NCCOc1ccccc1NC(=O)c1ccc2c(n1)N(C(=O)Nc1ccccc1)CCO2` [Compound I-130] it is at least 95%. Take `O=C(O)c1cccc(Nc2ccc3c(n2)N(C(=O)Nc2ccccc2)CCO3)c1` [Compound I-147]: the inhibition at 50 µM was at least 95%.

For the compound `O=C(Nc1ccccc1)N1CCOc2ccc(-c3ccn[nH]3)nc21` [Compound I-187], the inhibition at 50 µM was at least 95%. The figure for `CC(C)(C)OC(=O)CNC(=O)c1ccc(Nc2ccc3c(n2)N(C(=O)Nc2ccccc2)CCO3)cc1` [Compound I-273] is 76%; for `CC(NC(=O)c1ccc2c(n1)N(C(=O)Nc1ccccc1)CCO2)C(=O)O` (stereo not shown) [Compound I-38] it is 76%; for `COC(=O)c1cccc(-c2ccc3c(n2)N(C(=O)Nc2ccccc2)CCO3)c1` [Compound I-103] it is 94%. The same measure for `COc1ccc(NC(=O)N2CCOc3ccc(Nc4ccc(C(=O)O)cc4)nc32)cc1OC` [Compound I-210]: at least 95%; for `Cc1cc(C(=O)O)ccc1-c1ccc2c(n1)N(C(=O)Nc1ccccc1)CCO2` [Compound I-230]: at least 95%; for `COCOc1ccc(C(=O)OC)cc1Nc1ccc2c(n1)N(C(=O)Nc1ccccc1)CCO2` [Compound I-179]: 79%. The figure for `COc1ccc(-c2ccc3c(n2)N(C(=O)Nc2ccccc2)CCO3)cc1OC` [Compound I-99] is at least 95%; for `O=C(Nc1ccccc1)N1CCOc2cc(-c3cc4ccccc4[nH]3)cnc21` [Compound I-282] it is 74%. As to `O=C(Nc1ccccc1)N1CCOc2ccc(/C=C/c3ccccc3)nc21` [Compound I-60], the inhibition at 50 µM came out at 74%. Take `COC(=O)c1ccc(O)c(Nc2ccc3c(n2)N(C(=O)Nc2ccccc2)CCO3)c1` [Compound I-217]: the inhibition at 50 µM is 77%. The same measure for `CC1(C/C=C/c2ccccc2)SC(N2CCOc3cccnc32)=NC1=O` (stereo not shown) [Compound I-6]: 81%. For the compound `Nc1ccc(-c2ccc3c(n2)N(C(=O)Nc2ccccc2)CCO3)cn1` [Compound I-185], the inhibition at 50 µM was 76%. The figure for `CNC(=O)c1cnc2c(c1)OCCN2C(=O)Nc1ccccc1` [Compound I-303] is 89%; for `COC(=O)c1ccccc1Nc1ccc2c(n1)N(C(=O)Nc1ccccc1)CCO2` [Compound I-141] it is 82%; for `CCOC(=O)N1CCC(NC(=O)N2CCOc3ccc(-c4ccc(C(=O)O)cc4)nc32)CC1` [Compound I-203] it is at least 95%. Take `CCOC(=O)CCCc1ccc2c(n1)N(C(=O)Nc1ccccc1)CCO2` [Compound I-89]: the inhibition at 50 µM is at least 95%. Take `Nc1cnc2c(c1)OCCN2C(=O)Nc1ccccc1` [Compound I-148]: the inhibition at 50 µM stood at 94%. For the compound `O=C(Nc1ccccc1)N1CCOc2cccnc21` [Compound I-2], the inhibition at 50 µM came to 89%.

Turning to `CCOC(=O)CCc1ccc2c(n1)N(C(=O)Nc1ccccc1)CCO2` [Compound I-92], the inhibition at 50 µM was at least 95%. In the case of `Cc1n[nH]c(C)c1-c1ccc2c(n1)N(C(=O)Nc1ccccc1)CCO2` [Compound I-189], the inhibition at 50 µM turned out to be 83%. Consider `CC(C)(C)OC(=O)NCCOc1ccc(Nc2ccc3c(n2)N(C(=O)Nc2ccccc2)CCO3)cc1` [Compound I-214], for which the inhibition at 50 µM is at least 95%. As for `O=C(Nc1ccccc1)N1CCOc2cc(Nc3ccc(S(=O)(=O)N4CCOCC4)cc3)cnc21` [Compound I-323], the inhibition at 50 µM came to 89%. As to `CC(=O)Nc1cnc2c(c1)OCCN2C(=O)Nc1ccccc1` [Compound I-173], the inhibition at 50 µM was at least 95%.

Consider `O=C(O)COc1cccc(Nc2cnc3c(c2)OCCN3C(=O)Nc2ccccc2)c1` [Compound I-241], for which the inhibition at 50 µM is at least 95%. The same measure for `O=C(Nc1ccccc1)N1CCOc2ccc(N3CCOCC3)nc21` [Compound I-207]: 81%; for `CC(C)(C)OC(=O)CC(=O)Nc1cnc2c(c1)OCCN2C(=O)Nc1ccccc1` [Compound I-160]: 75%; for `O=C(O)c1cccc(NC(=O)c2ccc3c(n2)N(C(=O)Nc2ccccc2)CCO3)c1` [Compound I-126]: at least 95%. Turning to `CC1(Cc2ccccc2)SC(N2CCOc3cccnc32)=NC1=O` (stereo not shown) [Compound I-4], the inhibition at 50 µM was determined as 84%.

`C#CCC1(C)SC(N2CCOc3cccnc32)=NC1=O` (stereo not shown) [Compound I-7]: the inhibition at 50 µM worked out at 75%. Take `O=C(Nc1ccccc1)N1CCOc2cc(-c3cn[nH]c3)cnc21` [Compound I-251]: the inhibition at 50 µM was at least 95%.

Turning to `Cn1cc(-c2ccc3c(n2)N(C(=O)Nc2ccccc2)CCO3)cn1` [Compound I-190], the inhibition at 50 µM is at least 95%. The same measure for `O=C(O)c1ccc(NC(=O)c2ccc3c(n2)N(C(=O)Nc2ccccc2)CCO3)cc1` [Compound I-40]: 80%; for `O=C(O)c1ccc(Nc2ccc3c(n2)N(C(=O)Nc2ccccc2)CCO3)nc1` [Compound I-183]: 86%; for `O=C(O)c1ccc(C(=O)Nc2ccc3c(n2)N(C(=O)Nc2ccccc2)CCO3)cc1` [Compound I-125]: at least 95%. Take `N#Cc1ccc(Nc2cnc3c(c2)OCCN3C(=O)Nc2ccccc2)cc1` [Compound I-318]: the inhibition at 50 µM was at least 95%. The same measure for `O=C(O)CNC(=O)c1cccc(Nc2ccc3c(n2)N(C(=O)Nc2ccccc2)CCO3)c1` [Compound I-277]: at least 95%; for `O=C(Nc1ccccc1)N1CCOc2ccc(Nc3ccccc3)nc21` [Compound I-144]: 81%; for `O=C(O)COc1ccc(Nc2ccc3c(n2)N(C(=O)Nc2ccccc2)CCO3)cc1` [Compound I-224]: at least 95%. For the compound `O=C(O)CC(=O)Nc1cnc2c(c1)OCCN2C(=O)Nc1ccccc1` [Compound I-161], the inhibition at 50 µM was 88%.

With `COCOc1ccc(C(=O)O)cc1NC(=O)c1ccc2c(n1)N(C(=O)Nc1ccccc1)CCO2` [Compound I-218], the inhibition at 50 µM was determined as 87%. With `O=C(Nc1cccnc1)N1CCOc2cc(Nc3ccccc3)cnc21` [Compound I-271], the inhibition at 50 µM was at least 95%. The same measure for `NCCOc1cc(C(=O)O)ccc1Nc1ccc2c(n1)N(C(=O)Nc1ccccc1)CCO2` [Compound I-227]: at least 95%. The same measure for `CCN(CC)c1cc(F)cc(Nc2cnc3c(c2)OCCN3C(=O)Nc2ccccc2)c1` [Compound I-328]: 91%; for `CC(C)(C)OC(=O)NCCOc1cc(C(=O)O)ccc1Nc1ccc2c(n1)N(C(=O)Nc1ccccc1)CCO2` [Compound I-226]: at least 95%; for `O=C(Nc1ccccc1)N1CCOc2cc(Nc3ccc4ncsc4c3)cnc21` [Compound I-317]: at least 95%. Consider `CC(C)(C)OC(=O)NCCOc1ccccc1Nc1ccc2c(n1)N(C(=O)Nc1ccccc1)CCO2` [Compound I-215], for which the inhibition at 50 µM was at least 95%. The same measure for `O=C(O)COc1ccc(Nc2cnc3c(c2)OCCN3C(=O)Nc2ccccc2)cc1` [Compound I-252]: at least 95%; for `C=CCC1(C)SC(N2CCOc3cccnc32)=NC1=O` (stereo not shown) [Compound I-3]: 80%. Regarding `CC(C)(C)OC(=O)n1c(-c2cnc3c(c2)OCCN3C(=O)Nc2ccccc2)cc2ccccc21` [Compound I-283], the inhibition at 50 µM was found to be 85%. The same measure for `NCCOc1ccc(Nc2ccc3c(n2)N(C(=O)Nc2ccccc2)CCO3)cc1` [Compound I-221]: at least 95%; for `Cc1ccc(Nc2cnc3c(c2)OCCN3C(=O)Nc2ccccc2)cc1F` [Compound I-319]: 92%; for `O=C(Nc1ccccc1)N1CCOc2ccc(-c3ccoc3)nc21` [Compound I-101]: at least 95%.

Take `NCCOc1ccc(C(=O)O)cc1NC(=O)c1ccc2c(n1)N(C(=O)Nc1ccccc1)CCO2` [Compound I-118]: the inhibition at 50 µM is at least 95%.

As to `O=C(Nc1ccccc1)N1CCOc2ccc(-c3nccs3)nc21` [Compound I-83], the inhibition at 50 µM was found to be 92%.
